Format in all cases: cell-based
The test system of test [1] is IL-2/anti-CD3 stimulated IFNγ in human PBMCs. Put plainly: Assay 3: Inhibition of IL-2/anti-CD3 stimulated IFNγ in human PBMCs. The conditions noted are these: PBMC, 24 h stimulation, ELISA, read-out: pIC50, inhibition of IL-2/anti-CD3 stimulated IFNγ (converted). From the text:
Data are expressed as pIC50 (negative decadic logarithm IC50) values.
In general terms: An ELISA detects its analyte on a solid surface through an enzyme-linked reagent.

The test system of test [2] is IL-6 stimulated pSTAT3 in CD3+ T cells. Briefly: Assay 6: Inhibition of IL-6 stimulated pSTAT3 in CD3+ T cells. The settings on record: T-cell; CD3+ T cells in human PBMCs, flow cytometry; read-out: pIC50, inhibition of IL-6 stimulated pSTAT3 (converted). From the text: A protocol analogous to that of Assay 5 was used to determine the potency of the test compound for inhibition of interleuken-6 (IL-6) stimulated STAT3 phosphorylation.
An Alexa Fluor 647 conjugated anti-pSTAT3 antibody (pY705, Clone 4/P, BD Biosciences) was used to detect STAT3 phosphorylation.
Background: In flow cytometry, cells or beads pass a laser one at a time.

The test system of test [3] is IFNγ-induced pSTAT1 in CD14+ monocytes. Briefly: Assay 7: Inhibition of IFNγ-induced pSTAT1 in CD14+ monocytes. The settings on record: Homo sapiens, Monocyte, flow cytometry, read-out: pIC50, inhibition of IFNγ-induced pSTAT1 (converted). Here is the method: The potency of the test compound for inhibition of interferon gamma (IFNγ) stimulated STAT1 phosphorylation was measured in CD14-positive (CD14+) monocytes derived from human whole blood (Stanford Blood Center) using flow cytometry. Because IFNγ signals through JAK, this assay provides a measure of JAK cellular potency.
Monocytes were identified using a fluorescein isothiocyanate (FITC) conjugated anti-CD14 antibody (Clone RM052, Beckman Coulter), and an Alexa Fluor 647 conjugated anti-pSTAT1 antibody (pY701, Clone 4a, BD Biosciences) was used to detect STAT1 phosphorylation.
Human peripheral blood mononuclear cells (PBMC) were isolated from human whole blood of healthy donors using a ficoll gradient. […] Cells were washed twice with FACS buffer, and then resuspended in 1:10 anti-pSTAT1 Alexa Fluor 647:FACS buffer (100 μL) for 30 min at RT in the dark, washed twice in FACS buffer, and analyzed using a LSRII flow cytometer (BD Biosciences).
To determine the inhibitory potency of the test compound, the median fluorescent intensity (MFI) of pSTAT1 was measured in CD14+ monocytes. IC50 values were determined from analysis of the inhibition curves of MFI vs compound concentration. Data are expressed as pIC50 (negative decadic logarithm IC50) values.

Test [4] relates to IFNγ induced CXCL9 secretion in EpiAirway tissue cultures. Put plainly: Assay 15: IFNγ induced CXCL9 in human 3D airway cultures. The settings on record: 192 h, Day 8, average from 3 or 4 donors, read-out: % inhibition of IFNγ induced CXCL9 secretion (±STDV). Here is the method: (§1) EpiAirway tissue cultures were obtained from Mattek (AIR-100). Cultures were derived from asthmatic donors. In a cell culture insert, human derived tracheal/bronchial epithelial cells were grown and differentiated on a porous membrane support, allowing an air-liquid interface with warmed culture medium below the cells and a gaseous test atmosphere above. Tissues were cultured in maintenance media (Mattek, AIR-100-MM) in a 37° C., 5% CO2 humidified incubator. Four donors were tested. On Day 0, tissue cultures were treated with test compounds at 10 μM, 1 μM and/or 0.1 μM. Compounds were diluted in dimethyl sulfoxide (DMSO, Sigma) to a final concentration of 0.1%. DMSO at 0.1% was used as a vehicle control. Test compounds were incubated with cultures for 1 hour at 37° C., 5% CO2, followed by the addition of pre-warmed media containing IFNγ (R&D Systems) or IL-27 (R&D Systems) at a final concentration at 100 ng/ml. Tissue cultures were maintained for 8 days. Media was replaced every 2 days with fresh media containing compounds and IFNγ or IL-27. On Day 8, tissue cultures and supernatants were collected for analysis. Supernatant samples were assayed for CXCL10 (IP-10) and CXCL9 (MIG) using luminex analysis (EMD Millipore). Data is expressed as % Inhibition +/−standard deviation (±STDV). Percent inhibition was determined by compound inhibitory potency against IFNγ or IL-27 induced CXCL10 or CXCL9 secretion compared to vehicle treated cells. Data is the average from 3 or 4 donors. Compound 1 was able to inhibit IFNγ induced CXCL10 secretion by 99%±2.0 (at 10 μM), 71%±19 (at […]) and 17%±12 (at 0.1 μM) when compared to vehicle control. Compound 1 was able to inhibit IFNγ induced CXCL9 secretion by 100%±0.3 (at 10 μM), 99%±0.9 (at 1 μM) and 74%±17 (at 0.1 μM) when compared to vehicle. […] Compound 1 was able to inhibit IL-27 induced CXCL9 secretion by 100%±0 (at 10 μM), 95%±3.7 (at 1 μM) and 75%±3.5 (at 0.1 μM) when compared to vehicle control.

The subject of test [5] is IL-27 induced CXCL10 secretion in EpiAirway tissue cultures. Put plainly: Assay 15: IL-27 induced CXCL10 in human 3D airway cultures. The conditions noted are these: 192 h, Day 8, average from 3 or 4 donors, read-out: % inhibition of IL-27 induced CXCL10 secretion (±STDV). On the procedure:
as §1

The text below walks through data of patent US10251874B2, “Crystalline forms of a JAK inhibitor compound” (THERAVANCE BIOPHARMA R&D IP, LLC, priority 2017, dated 2019).

In the case of `CCc1cc(O)c(F)cc1-c1ccc2c(-c3nc4c([nH]3)CCN(C3CCN(C)CC3)C4)n[nH]c2c1` [Compound 1, 5-ethyl-2-fluoro-4-(3-(5-(1-methylpiperidin-4-yl)-4,5,6,7-tetrahydro-1H-imidazo[4,5-c]pyridin-2-yl)-1H-indazol-6-yl)phenol], the figures for the IC50 in test [1], in test [2] and in test [3] were approximately 50.1 nM, 39.8 nM and approximately 31.6 nM, respectively. Further, the inhibition (in general, the drop in the measured response relative to a control, in per cent) at 0.1 µM in test [4] (at 0.1 μM) is 74%; in test [5] (at 0.1 μM) it was 73%. In addition, the inhibition at 1 µM is 99% in test [4] (at 1 μM) and 98% in test [5] (at 1 μM). The inhibition at 10 µM in test [4] (at 10 μM) was 100%; in test [5] (at 10 μM), 108%.
